Assay results from a melting point compilation (Tetko et al.).

Row | SMILES | melting point [°C]
1 | NNc1nc2cc(Cl)ccc2s1 | 209 to 211
2 | O=C1CCc2c(F)cccc21 | 71 to 73
3 | NS(=O)(=O)c1cccc2c1OCCO2 | 173 to 175
4 | Cc1ccc(C2CC2C(=O)O)cc1C (stereo unspecified) | 97 to 99
5 | NS(=O)(=O)CCCF | 45 to 47
6 | Nc1cc(N2CCCC2=O)ccc1F | 106 to 108
7 | O=C(O)Cc1c[nH]c2ccc(F)cc12 | 139 to 141
8 | Clc1ccc(NCCc2ccccc2)nn1 | 159 to 161
9 | CSc1ccc(C(=O)O)cn1 | 182 to 184
10 | CCC(CC)C(=O)N1CCC(=NO)CC1 | 101 to 103
11 | O=C(O)c1ccccc1SC(F)F | 114 to 116
12 | CCn1c(N)nc2cc(Cl)ccc21 | 169 to 171
13 | O=C(O)c1cccc(-n2[nH]c(=O)ccc2=O)c1 | 312 to 314
14 | O=C(O)c1csc(Cc2cccc(F)c2)n1 | 149 to 151
15 | N#Cc1ccc(C(=O)O)[nH]1 | 239 to 241
16 | CC(C)(C)NS(=O)(=O)c1cc(C(=O)O)ccc1Cl | 212 to 214
17 | Cc1ccc(-c2nc(C)c(C(C)O)s2)cc1 (stereo unspecified) | 111 to 113
18 | O=C1c2ccccc2C(=O)N1c1cnn(Cc2ccccc2)c1 | 149 to 151
19 | COc1cc(C(=O)NN)ccc1OCCC(C)C | 88 to 90
20 | Cc1ccc(Nc2nnc(S)s2)cc1 | 219 to 221
21 | COc1ccc2oc(C(C)=O)c(C)c2c1 | 96 to 98
22 | COc1cc(CCl)cc(Br)c1OC | 60 to 62
23 | O=C(O)CCNc1ccccn1 | 169 to 171
24 | CC(=O)N1CCC(CCl)CC1 | 48 to 50
25 | O=C(O)c1cnn(-c2ccccc2F)c1 | 160 to 162

Row | SMILES | melting point [°C]
26 | COc1cc(C(=O)O)c(N)cc1OC(F)F | 152 to 154
27 | Cc1noc(N)n1 | 161 to 163
28 | Cc1cc(Br)cc2cc(C#N)oc12 | 139 to 141
29 | CN(C)S(=O)(=O)c1ccc(Br)c(C(=O)O)c1 | 174 to 176
30 | Clc1cc(-c2ccccc2)c2ccccc2n1 | 85 to 89
31 | CNC(C)c1ccc(-n2cnc3ccccc32)cc1 (stereo unspecified) | 62 to 64
32 | NC(=O)c1ccc(Br)c(C(F)(F)F)c1 | 138 to 140
33 | NS(=O)(=O)c1cccc(NC(=O)c2ccc(Cl)cc2)c1 | 93 to 96
34 | Cc1cc(C)n2nc(N)nc2n1 | 369 to 371
35 | O=C(CCl)Nc1nc2ccc(F)cc2s1 | 170 to 172
36 | Nc1cc(N2C(=O)CCC2=O)ccc1F | 215 to 217
37 | NC(Cn1cccn1)=NO | 80 to 82
38 | NNc1ccc(C(F)(F)F)nn1 | 132 to 134
39 | COc1ccc(C(N)CN2CCN(C)CC2)cc1 (stereo unspecified) | 82 to 84
40 | CC(=O)c1c(Cl)nc2sccn12 | 159 to 161
41 | O=C(O)c1cc2c(F)cccc2s1 | 214 to 216
42 | O=S(=O)(Cl)C1c2ccccc2-c2ccccc21 | 84 to 86
43 | Nc1ccccc1C(=O)Nc1cccc(Cl)c1 | 131 to 135
44 | NCc1noc(-c2ccco2)n1 | 143 to 145
45 | O=C(O)c1cc2cccc(Br)c2o1 | 256 to 258
46 | O=C(O)c1cc(-c2ccc(Cl)s2)[nH]n1 | 231 to 233
47 | COC(=O)c1ccc2nc(N)oc2c1 | 228 to 230
48 | O=C(O)C12CC3CC(C1)CC(c1ccccc1)(C3)C2 | 161 to 163
49 | COc1ccc(N)cc1OCc1cccnc1 | 95 to 97
50 | Nc1cccc(C(=O)N2CCCC(CO)C2)c1 (stereo unspecified) | 115 to 117

Row | SMILES | melting point [°C]
51 | NC(=O)COc1ccc(/C=C/C(=O)O)cc1 | 295 to 297
52 | COc1ccc(N)cc1S(=O)(=O)N1CCCCC1 | 93 to 95
53 | COc1ccc2c(c1)OCC(C(=O)O)C2 (stereo unspecified) | 152 to 154
54 | COc1cc(C(=O)O)sc1S(N)(=O)=O | 254 to 256
55 | O=C(O)CCCC(=O)c1ccc(Cl)c(Cl)c1 | 140 to 142
56 | CCc1c(C(=O)O)cnn1-c1ccc(Br)cc1 | 209 to 211
57 | O=C1NC(=O)N2CCCC12 (stereo unspecified) | 149 to 151
58 | O=C(CCl)NCC(c1ccc(Cl)cc1Cl)c1c[nH]c2ccccc12 (stereo unspecified) | 73 to 75
59 | COc1ccccc1-c1nnc(S)n1CCc1ccccc1 | 87 to 89
60 | N#CSCC(=O)c1ccccc1Cl | 56 to 58
61 | Cc1cc(C(=O)O)c(C)n1-c1ccccn1 | 187 to 189
62 | N#Cc1cc(C(=O)c2ccccc2O)cn(-c2ccccn2)c1=O | 147 to 150
63 | COc1cc(I)c(C(=O)O)cc1OC | 200 to 202
64 | Cc1ccc(Br)c2cccnc12 | 34 to 36
65 | CC1(C)C2CCC1(CS(=O)(=O)F)C(=O)C2 (stereo unspecified) | 79 to 81
66 | Cn1cccc1C(=O)NC1CCNCC1 | 195 to 197
67 | O=C(O)c1cccc(S(=O)(=O)F)c1 | 152 to 154
68 | Cc1c[nH]c(=O)n1-c1ccccc1[N+](=O)[O-] | 209 to 211
69 | Cc1sc2nc(-c3ccccc3)nc(Cl)c2c1C | 157 to 159
70 | CC(=O)NC1(C(=O)O)CCCCCC1 | 196 to 198
71 | Cc1nn(-c2ccccc2)c(C)c1NC(=O)CCCl | 119 to 121
72 | NS(=O)(=O)c1ccc(NC(=O)OCC(F)(F)F)cc1 | 192 to 194
73 | O=C(O)c1ccc(-n2cncn2)c(F)c1 | 285 to 287
74 | NC(=O)c1csc(N)n1 | 196 to 198
75 | C=CCNC(=O)CC#N | 65 to 67

Row | SMILES | melting point [°C]
76 | O=C(O)CCc1ccc(C(F)(F)F)cc1 | 106 to 110
77 | ClCc1nnc(-c2ccco2)o1 | 81 to 83
78 | O=Cc1cnc2ccc(Br)cn12 | 162 to 164
79 | O=C(O)c1ccc(Oc2ccc(F)cc2[N+](=O)[O-])cc1 | 179 to 181
80 | COc1ccc(-c2nc(CO)cs2)cc1 | 74 to 76
81 | O=C(O)CCc1ccccc1[N+](=O)[O-] | 109 to 111
82 | O=C(O)c1cn(-c2ccccc2Cl)nn1 | 133 to 135
83 | O=C(O)C(=O)c1ccc(Br)cc1O | 188 to 190
84 | Cc1cc(CSc2ncccc2C(=O)O)no1 | 169 to 171
85 | C#CCOc1ccc(NC)cc1 | 46 to 48
86 | COc1cc(N)c(C(N)=O)cc1OC | 142 to 144
87 | CCOC(=O)c1cc(Br)cc(Cl)c1N | 49 to 51
88 | C#CCN1CCCCC1C(=O)NC (stereo unspecified) | 116 to 118
89 | CC(C)(C)c1ccc(CCCC(=O)O)cc1 | 53 to 55
90 | O=C(O)c1cccn1Cc1ccncc1 | 199 to 201
91 | O=C(O)c1ccc(NS(=O)(=O)c2ccc(Cl)c(Cl)c2)cc1 | 254 to 256
92 | CCOC(=O)c1ccc2c(c1)nc(C)n2CC | 70 to 72
93 | Nc1ccccc1C(=O)NCc1ccc2c(c1)OCO2 | 115 to 124
94 | COc1ccc(S(=O)(=O)N2CCOCC2)cc1N | 189 to 191
95 | Cc1nc2ccccc2c(=O)n1-c1ccc(Br)cc1 | 176 to 178
96 | Cc1ccnc(NN)c1 | 74 to 76
97 | Nc1cccc(I)c1C(=O)O | 130 to 132
98 | Cc1cc(C(=O)O)c(C)n1-c1cccc(Br)c1 | 158 to 160
99 | CCOC(=O)c1c[nH]cc1C(F)(F)F | 161 to 163
100 | CCS(=O)(=O)NC(C)C(=O)O (stereo unspecified) | 129 to 131

Row | SMILES | melting point [°C]
101 | CC1(C)CC(C)(C)c2cc(O)ccc21 | 99 to 101
102 | COC(=O)c1cc(C(=O)OC)[nH]n1 | 149 to 151
103 | O=C(O)CCS(=O)(=O)c1ccccc1Cl | 132 to 134
104 | O=S(=O)(Cl)c1c(Br)cc(F)cc1Br | 82 to 84
105 | COc1ccc(O)c(C(N)=O)c1 | 151 to 153
106 | COc1ccc(C)cc1-c1nnc(S)n1N | 247 to 249
107 | Sc1nc2c(s1)CCCC2 | 119 to 121
108 | NC(=O)c1cnc(Cl)c(Cl)c1 | 204 to 206
109 | O=Cc1ccc(OCCC(=O)O)cc1 | 132 to 134
110 | Cc1cc(C)n(CCO)n1 | 74 to 76
111 | CC(=O)c1sc(NCCCC(=O)O)nc1C | 140 to 142
112 | COC(=O)Cc1cc(=O)n(C(C)(C)C)[nH]1 | 110 to 112
113 | Oc1ccccc1CNc1ccc(F)cc1 | 103 to 105
114 | Cc1cccc(-n2nnnc2S)c1 | 156 to 158
115 | NS(=O)(=O)c1cc(Br)ccc1Cl | 179 to 181
116 | COc1cc2c(cc1OC)S(=O)(=O)NC2=O | 279 to 281
117 | O=C(O)c1ccn(-c2ccccc2[N+](=O)[O-])n1 | 223 to 225
118 | O=C(O)CCC(=O)c1cc(Cl)sc1Cl | 117 to 119
119 | COc1ccc(C2(C(=O)O)CCC2)cc1 | 95 to 97
120 | CCOC(=O)c1cc(C(=O)O)cc([N+](=O)[O-])c1 | 178 to 180
121 | CC(C)(C)OC(=O)NC1CCN(CC(N)=S)CC1 | 169 to 171
122 | O=C(O)C(=O)NCCCc1ccccc1 | 120 to 122
123 | C#CCNC(=O)Nc1cc(C)on1 | 163 to 165
124 | O=C1CCc2ccc(Cl)cc21 | 79 to 81
125 | CC(C)(C)OC(=O)N1CCc2n[nH]c(=O)cc2C1 | 187 to 189

Row | SMILES | melting point [°C]
126 | COc1ccc(S(=O)(=O)Nc2ccccc2Cl)cc1N | 93 to 95
127 | CC(C)c1noc(-c2ccccc2C(=O)O)n1 | 141 to 143
128 | Cc1nc([N+](=O)[O-])cn1CCC(=O)O | 217 to 219
129 | FC(F)(F)Cn1nnnc1S | 122 to 124
130 | c1ccc2oc(C3CCNCC3)nc2c1 | 111 to 113
131 | CS(=O)(=O)c1ccc(C(=O)O)cc1[N+](=O)[O-] | 274 to 276
132 | CNc1cc(-c2ccccc2)[nH]n1 | 122 to 124
133 | Cc1cccc2c(=O)[nH]cnc12 | 255 to 257
134 | CC(C(=O)O)c1cccnc1 (stereo unspecified) | 85 to 87
135 | O=C(O)c1ccc(S)cc1Cl | 184 to 186
136 | CC(=O)c1c[nH]c2cc(Cl)ccc12 | 229 to 231
137 | Nc1ccc(NC(=O)NCC2CCCO2)cc1 (stereo unspecified) | 141 to 143
138 | NCC(O)c1cccs1 (stereo unspecified) | 81 to 83
139 | O=C(O)CCNC(=O)c1ccncc1 | 239 to 241
140 | CC(NC(=O)C(Br)C(C)C)c1ccccc1 (stereo unspecified) | 73 to 75
141 | COC(=O)c1ccc2n[nH]c(=O)n2c1 | 225 to 227
142 | O=C(O)C1(c2cccc(Br)c2)CC1 | 143 to 145
143 | O=Cc1ccc(N2CCOCC2)c(F)c1 | 68 to 70
144 | O=[N+]([O-])c1ccccc1NCCO | 76 to 78
145 | C#CCNC(C)=O | 79 to 81
146 | O=c1c(-c2ccccc2)coc2cc(O)ccc12 | 201 to 203
